pIC50: −log10 of the molar value. Bounds are passed on as bounds.

As usually defined, the pIC50 is the IC50 on a negative log10 scale, so that one unit is a factor of ten.

For the assay, the target named is T1, JNK1 (Homo sapiens, UniProt P45983).
T1 construct: purchased Carna Biosciences
T1 sequence (P45983 whole entry): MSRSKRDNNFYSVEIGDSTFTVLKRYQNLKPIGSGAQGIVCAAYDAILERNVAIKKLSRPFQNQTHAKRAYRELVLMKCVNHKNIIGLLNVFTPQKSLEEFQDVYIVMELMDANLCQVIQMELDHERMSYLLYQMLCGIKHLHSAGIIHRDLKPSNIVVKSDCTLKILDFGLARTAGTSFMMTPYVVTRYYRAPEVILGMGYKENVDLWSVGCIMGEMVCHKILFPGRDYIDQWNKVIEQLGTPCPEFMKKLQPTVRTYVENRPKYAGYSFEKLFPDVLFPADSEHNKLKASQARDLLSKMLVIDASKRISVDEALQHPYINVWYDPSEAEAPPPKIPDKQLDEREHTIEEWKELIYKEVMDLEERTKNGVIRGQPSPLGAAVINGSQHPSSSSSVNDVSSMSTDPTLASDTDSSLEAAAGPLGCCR
Briefly: JNK1 biochemical assays (one or more of: time resolved fluorescence, Z'-LYTE Cascade, radioactive). The following applies: tested in one or more of the JNK1 biochemical assays; read-out: Act. Level (JNK1 biochemical assay IC50 activity level).
Take `NC(=O)c1cnc(NC2CCCCC2)nc1NC1CCCC1` [Example A-149, 2-(cyclohexylamino)-4-(cyclopentylamino)pyrimidine-5-carboxamide]: the pIC50 was > 6.70. With `CC1(Nc2ncc(C(N)=O)c(N[C@@H]3CCC[C@H](O)C3)n2)CCOCC1` [Example A-151, 4-((1R,3S)-3-hydroxycyclohexylamino)-2-(4-methyltetrahydro-2H-pyran-4-ylamino)pyrimidine-5-carboxamide] the figure was > 6.70; with `NC(=O)c1cnc(N[C@H]2CC[C@H](N3CCCC3)CC2)nc1N[C@@H]1CCC[C@H](O)C1` [Example A-153, 4-((1R,3S)-3-hydroxycyclohexylamino)-2-((1r,4R)-4-(pyrrolidin-1-yl)cyclohexylamino)pyrimidine-5-carboxamide], > 6.70; with `NC(=O)c1cnc(N[C@H]2CC[C@H](OCC(F)(F)F)CC2)nc1N[C@@H]1CCC[C@H]1O` [Example A-156, 4-((1R,2R)-2-hydroxycyclopentylamino)-2-((1r,4R)-4-(2,2,2-trifluoroethoxy)cyclohexylamino)pyrimidine-5-carboxamid], > 6.70. The figure for `CCO[C@H]1CC[C@H](Nc2ncc(C(N)=O)c(N[C@@H]3CCC[C@](C)(O)C3)n2)CC1` [Example A-157, 2-((1r,4R)-4-ethoxycyclohexylamino)-4-((1R,3S)-3-hydroxy-3-methylcyclohexylamino)pyrimidine-5-carboxamide] is > 6.70; for `CCO[C@H]1CC[C@H](Nc2ncc(C(N)=O)c(N[C@@H]3CCCC[C@H](O)C3)n2)CC1` [Example A-158, 2-((1r,4R)-4-ethoxycyclohexylamino)-4-((1R,3S)-3-hydroxycycloheptylamino)pyrimidine-5-carboxamide] it is > 6.70. The figure for `NC(=O)c1cnc(NC23CCC(CC2)CC3)nc1N[C@@H]1CCC[C@H](O)C1` [Example A-159, 2-(bicyclo[2.2.2]octan-1-ylamino)-4-((1R,3S)-3-hydroxycyclohexylamino)pyrimidine-5-carboxamide] is > 6.70.

With `NC(=O)c1cnc(N[C@H]2CC[C@H](OCC(F)(F)F)CC2)nc1N[C@@H]1CCCC[C@H](O)C1` [Example A-160, 4-((1R,3S)-3-hydroxycycloheptylamino)-2-((1r,4R)-4-(2,2,2-trifluoroethoxy)cyclohexylamino)pyrimidine-5-carboxamid], the pIC50 was > 6.70. With `CC[C@]1(O)CCC[C@@H](Nc2nc(N[C@H]3CC[C@H](OC)CC3)ncc2C(N)=O)C1` [Example A-161, 4-((1R,3S)-3-ethyl-3-hydroxycyclohexylamino)-2-((1r,4R)-4-methoxycyclohexylamino)pyrimidine-5-carboxamide] the figure was > 6.70; with `CO[C@@H]1CCC[C@H](Nc2ncc(C(N)=O)c(N[C@@H]3CCC[C@H](O)C3)n2)CC1` [Example A-162, 4-((1R,3S)-3-hydroxycyclohexylamino)-2-((1S,4R)-4-methoxycycloheptylamino)pyrimidine-5-carboxamide], > 6.70. The figure for `CO[C@H]1CCC[C@@H](Nc2ncc(C(N)=O)c(N[C@@H]3CCC[C@H](O)C3)n2)CC1` [Example A-163, 4-((1R,3S)-3-hydroxycyclohexylamino)-2-((1R,4S)-4-methoxycycloheptylamino)pyrimidine-5-carboxamide] is > 6.70; for `CO[C@H]1CC[C@H](Nc2ncc(C(N)=O)c(NC3CCC3)n2)CC1` [Example A-164, 4-(cyclobutylamino)-2-((1r,4r)-4-methoxycyclohexylamino)pyrimidine-5-carboxamide] it is > 6.70; for `NC(=O)c1cnc(N[C@H]2CC[C@H](OC(F)F)CC2)nc1N[C@@H]1CCCC[C@H](O)C1` [Example A-165, 2-((1r,4R)-4-(difluoromethoxy)cyclohexylamino)-4-((1R,3S)-3-hydroxycycloheptylamino)pyrimidine-5-carboxamide] it is > 6.70.

In the case of `NC(=O)c1cnc(NC2CCOCC2)nc1N[C@@H]1CCCC[C@H](O)C1` [Example A-166, 4-((1R,3S)-3-hydroxycycloheptylamino)-2-(tetrahydro-2H-pyran-4-ylamino)pyrimidine-5-carboxamide], the pIC50 was > 6.70. The figure for `CCO[C@H]1CC[C@H](Nc2ncc(C(N)=O)c(N[C@@H]3CCOC3)n2)CC1` [Example A-167, 2-((1r,4R)-4-ethoxycyclohexylamino)-4-((R)-tetrahydrofuran-3-ylamino)pyrimidine-5-carboxamide] is > 6.70; for `C[C@]1(O)CCC[C@@H](Nc2nc(N[C@H]3CC[C@H](OCC(F)(F)F)CC3)ncc2C(N)=O)C1` [Example A-168, 4-((1R,3S)-3-hydroxy-3-methylcyclohexylamino)-2-((1r,4R)-4-(2,2,2-trifluoroethoxy)cyclohexylamino)pyrimidine-5-carboxamid] it is > 6.70; for `C[C@]1(O)CCC[C@@H](Nc2nc(NC3CCOCC3)ncc2C(N)=O)C1` [Example A-169, 4-((1R,3S)-3-hydroxy-3-methylcyclohexylamino)-2-(tetrahydro-2H-pyran-4-ylamino)pyrimidine-5-carboxamide] it is > 6.70.

Turning to `C[C@]1(O)CCC[C@@H](Nc2nc(N[C@H]3CC[C@H](OC(F)F)CC3)ncc2C(N)=O)C1` [Example A-170, 2-((1r,4R)-4-(difluoromethoxy)cyclohexylamino)-4-((1R,3S)-3-hydroxy-3-methylcyclohexylamino)pyrimidine-5-carboxamide], the pIC50 is > 6.70. The figure for `NC(=O)c1cnc(N[C@H]2CC[C@H](O)CC2)nc1N[C@@H]1CCCC[C@H](O)C1` [Example A-171, 4-((1R,3S)-3-hydroxycycloheptylamino)-2-((1r,4R)-4-hydroxycyclohexylamino)pyrimidine-5-carboxamide] is > 6.70; for `CCO[C@H]1CC[C@H](Nc2ncc(C(N)=O)c(N[C@@H]3CC[C@@H](C)[C@H](O)C3)n2)CC1` [Example A-172, 2-((1r,4R)-4-ethoxycyclohexylamino)-4-((1R,3R,4R)-3-hydroxy-4-methylcyclohexylamino)pyrimidine-5-carboxamide] it is > 6.70; for `C[C@@H]1CC[C@@H](Nc2nc(N[C@H]3CC[C@H](OC(F)F)CC3)ncc2C(N)=O)C[C@H]1O` [Example A-173, 2-((1r,4R)-4-(difluoromethoxy)cyclohexylamino)-4-((1R,3R,4R)-3-hydroxy-4-methylcyclohexylamino)pyrimidine-5-carboxamide] it is > 6.70.

`NC(=O)c1cnc(N[C@H]2CC[C@H](OCC(F)(F)F)CC2)nc1NC1CCC1` [Example A-174, 4-(cyclobutylamino)-2-((1r,4r)-4-(2,2,2-trifluoroethoxy)cyclohexylamino)pyrimidine-5-carboxamide]: the pIC50 is > 6.70. `NC(=O)c1cnc(N[C@H]2CC[C@H](O)CC2)nc1NC1CC1` [Example A-175, 4-(cyclopropylamino)-2-((1r,4r)-4-hydroxycyclohexylamino)pyrimidine-5-carboxamide]: the pIC50 was > 6.70. With `NC(=O)c1cnc(N[C@H]2CC[C@H](O)CC2)nc1NC1CCC1` [Example A-176, 4-(cyclobutylamino)-2-((1r,4r)-4-hydroxycyclohexylamino)pyrimidine-5-carboxamide] the figure was > 6.70.

`C[C@]1(O)CCC[C@@H](Nc2nc(N[C@H]3CC[C@H](O)CC3)ncc2C(N)=O)C1` [Example A-177, 4-((1R,3S)-3-hydroxy-3-methylcyclohexylamino)-2-((1r,4R)-4-hydroxycyclohexylamino)pyrimidine-5-carboxamide]: the pIC50 is > 6.70. In the case of `C[C@@H]1CC[C@@H](Nc2nc(N[C@H]3CC[C@H](OCC(F)(F)F)CC3)ncc2C(N)=O)C[C@H]1O` [Example A-178, 4-((1R,3R,4R)-3-hydroxy-4-methylcyclohexylamino)-2-((1r,4R)-4-(2,2,2-trifluoroethoxy)cyclohexylamino)pyrimidine-5-carboxamide], the pIC50 was > 6.70.

For `C[C@@H]1CC[C@@H](Nc2nc(N[C@H]3CC[C@H](O)CC3)ncc2C(N)=O)C[C@H]1O` [Example A-179, 4-((1R,3R,4R)-3-hydroxy-4-methylcyclohexylamino)-2-((1r,4R)-4-hydroxycyclohexylamino)pyrimidine-5-carboxamide], the pIC50 is > 6.70. The figure for `CC1(Nc2ncc(C(N)=O)c(N[C@@H]3CCCC[C@H](O)C3)n2)CCOCC1` [Example A-181, 4-((1R,3S)-3-hydroxycycloheptylamino)-2-(4-methyltetrahydro-2H-pyran-4-ylamino)pyrimidine-5-carboxamide] is > 6.70; for `CC(C)(C)Nc1ncc(C(N)=O)c(N[C@@H]2CCCC[C@H](O)C2)n1` [Example A-182, 2-(tert-butylamino)-4-((1R,3S)-3-hydroxycycloheptylamino)pyrimidine-5-carboxamide] it is > 6.70; for `CO[C@H]1CC[C@H](Nc2ncc(C(N)=O)c(N[C@@H]3CCCC[C@](C)(O)C3)n2)CC1` [Example A-183, 4-((1R,3S)-3-hydroxy-3-methylcycloheptylamino)-2-((1r,4R)-4-methoxycyclohexylamino)pyrimidine-5-carboxamide] it is > 6.70. With `CO[C@H]1CC[C@H](Nc2ncc(C(N)=O)c(N[C@H]3CCCC[C@](C)(O)C3)n2)CC1` [Example A-184, 4-((1S,3S)-3-hydroxy-3-methylcycloheptylamino)-2-((1r,4S)-4-methoxycyclohexylamino)pyrimidine-5-carboxamide] the figure was 6.10 to 6.70; with `CO[C@H]1CC[C@H](Nc2ncc(C(N)=O)c(N[C@H]3CCCC[C@@](C)(O)C3)n2)CC1` [Example A-185, 4-((1S,3R)-3-hydroxy-3-methylcycloheptylamino)-2-((1r,4S)-4-methoxycyclohexylamino)pyrimidine-5-carboxamide], > 6.70. With `CO[C@H]1CC[C@H](Nc2ncc(C(N)=O)c(N[C@@H]3CCCC[C@@](C)(O)C3)n2)CC1` [Example A-186, 4-((1R,3R)-3-hydroxy-3-methylcycloheptylamino)-2-((1r,4R)-4-methoxycyclohexylamino)pyrimidine-5-carboxamide] the figure was > 6.70.

(Values after patent publication US12129237B2, “Substituted diaminocarboxamide and diaminocarbonitrile pyrimidines, compositions thereof, and methods of treatment therewith” (SIGNAL PHARMACEUTICALS, LLC, priority 2011, dated 2024).)
